Tests used:
CB2 receptor = target: T1, CB2 receptor (Rattus norvegicus, UniProt Q9QZN9); conditions: background statement; cited from earlier work
T1 sequence (Q9QZN9 1-360): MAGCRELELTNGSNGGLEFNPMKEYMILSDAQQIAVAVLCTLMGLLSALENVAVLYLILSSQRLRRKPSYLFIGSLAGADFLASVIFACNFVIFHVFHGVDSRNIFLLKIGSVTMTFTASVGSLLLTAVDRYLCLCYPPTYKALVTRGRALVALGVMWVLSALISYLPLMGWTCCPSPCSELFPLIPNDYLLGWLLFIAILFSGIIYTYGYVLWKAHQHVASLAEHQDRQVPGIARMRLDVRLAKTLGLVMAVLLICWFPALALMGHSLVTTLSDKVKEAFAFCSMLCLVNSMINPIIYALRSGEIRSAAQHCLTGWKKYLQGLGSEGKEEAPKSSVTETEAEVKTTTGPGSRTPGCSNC

male Sprague-Dawley rats [1] = assay: Carrageenan model of inflammatory pain, radiant heat paw withdrawal, compound given before carrageenan (Example 1); format: in vivo, rat; conditions: seconds±SEM
Description: Intraplantar injection of carrageenan (Cg) in a rodent produces pronounced hypersensitivity to both thermal and mechanical stimuli. The effects of carrageenan are maximal 2-4 hr after administration.
(§1) To assess the ability of test compounds to reverse thermal hyperalgesia, baseline response latencies on a radiant heat (RH) paw stimulator were obtained before an intraplantar injection of carrageenan-λ (200 μL) in male Sprague-Dawley rats (250-350 g in treatment groups of 9 animals each). Only withdrawal responses that were quick hind paw movements (with or without licking of the hind paw) were recorded. Paw movements associated with locomotion or a shifting of weight were not considered a withdrawal response.
(§2) The weight of each animal was recorded on the day of the experiment. Each animal was placed on a warm (approx. body temperature, 30° C.) glass surface and allowed to acclimate to the test chamber for approximately 10-15 minutes. A radiant thermal stimulus (beam of light) was then focused on the sole of each hind paw in turn, and an initial (baseline) response time to thermal stimuli was recorded for each animal. The stimulus intensity (radiant heat at a setting of 5 Amps) that produced 10-15 sec baseline withdrawal latencies was used and a maximum cutoff of 20 sec was imposed. The light stimulus was automatically shut off by a photoelectric relay when the foot moved or when the cut-off time limit was reached.
One treatment group (8 animals each) was injected i.p. with vehicle (5% DMSO and 5% Tween-80 in sterile saline). The other treatment groups (8 animals each) were injected i.p. with 3, 10 or 30 mg/kg Compound 2.
One hour later, withdrawal latencies for the animals administered vehicle were recorded. After assessment, all animals were administered 1% carrageenan (200 μL in sterile saline) subcutaneously into the sub-plantar tissue of the left hind paw to stimulate an acute inflammatory reaction. Three hours later, the response time of the animals to the thermal stimulus was evaluated.

male Sprague-Dawley rats [2] = assay: Carrageenan model of inflammatory pain, radiant heat paw withdrawal, compound given 2.5 hr after carrageenan (Example 2); format: in vivo, rat; conditions: 30 min after compound, seconds±SEM
Description: as §1, §2
The experiment of Example 1 is repeated with the exception that animals are first administered 1% carrageenan (200 μL in sterile saline) subcutaneously into the sub-plantar tissue of the left hind paw to stimulate an acute inflammatory reaction.
Two and a half hours later, withdrawal latencies are assessed (‘post-Cg’). One treatment group is then injected i.p. with vehicle (5% DMSO and 5% Tween-80 in sterile saline). The other treatment groups are injected i.p. with 3, 10 or 30 mg/kg of Compound 2. Thirty minutes after test compound administration withdrawal latencies are recorded.

CN1CCCCC1Cn1cc(C(=O)c2cc([N+](=O)[O-])ccc2I)c2ccccc21 (stereo not shown) [AM1241]
antinociception to thermal stimuli (CB2 receptor): produces antinociception

O=C(NCC12CC3CC(CC(C3)C1)C2)c1nn(C2CCCCC2)c2c1CCCCCC2 [Compound 2, 1-cyclohexyl-4,5,6,7,8,9-hexahydro-1H-cyclooctapyrazole-3-carboxylic acid (adamantan-1-ylmethyl)-amide]
response time (withdrawal latency) to thermal stimulus, 3 hrs post Cg administration (male Sprague-Dawley rats [1]; 3 mg/kg i.p. 1 hr before 1% carrageenan): 5.11 ± 0.84 s | response time (withdrawal latency) to thermal stimulus, 3 hrs post Cg administration (male Sprague-Dawley rats [1]; 10 mg/kg i.p. 1 hr before 1% carrageenan): 6.18 ± 0.91 s | response time (withdrawal latency) to thermal stimulus, 3 hrs post Cg administration (male Sprague-Dawley rats [1]; 30 mg/kg i.p. 1 hr before 1% carrageenan): 14.41 ± 1.75 s | withdrawal latency, 3 hrs post Cg administration (male Sprague-Dawley rats [2]; 3 mg/kg i.p. 2.5 hr after 1% carrageenan): 5.92 ± 1.15 s | withdrawal latency, 3 hrs post Cg administration (male Sprague-Dawley rats [2]; 10 mg/kg i.p. 2.5 hr after 1% carrageenan): 6.88 ± 0.44 s | withdrawal latency, 3 hrs post Cg administration (male Sprague-Dawley rats [2]; 30 mg/kg i.p. 2.5 hr after 1% carrageenan): 8.52 ± 1.08 s

Reference: US20090215850A1, “METHOD FOR TREATING CB2 RECEPTOR MEDIATED PAIN” (priority 2008, published 2009)
